Results published in article PMC8326665, “Branebrutinib (BMS-986195), a Bruton’s Tyrosine Kinase Inhibitor, Resensitizes P-Glycoprotein-Overexpressing Multidrug-Resistant Cancer Cells to Chemotherapeutic Agents” (Frontiers in Cell and Developmental Biology, 2021).

Target: T1, P-glycoprotein (P-gp/ABCB1) (Homo sapiens, UniProt P08183)
T1 construct: full-length human P-gp; MDR1 baculovirus in High-Five insect cell total membranes (ATPase); transfected MDR19-HEK293 cells (calcein efflux)
Experiment: vanadate-sensitive ATPase activity, endpoint inorganic phosphate assay, insect cell membranes
Assay type: biochemical
Description: vanadate-sensitive ATPase activity, endpoint inorganic phosphate assay, insect cell membranes on P-glycoprotein (P-gp/ABCB1) | half maximal effective concentration (EC50) value

T1 sequence (P08183 whole entry): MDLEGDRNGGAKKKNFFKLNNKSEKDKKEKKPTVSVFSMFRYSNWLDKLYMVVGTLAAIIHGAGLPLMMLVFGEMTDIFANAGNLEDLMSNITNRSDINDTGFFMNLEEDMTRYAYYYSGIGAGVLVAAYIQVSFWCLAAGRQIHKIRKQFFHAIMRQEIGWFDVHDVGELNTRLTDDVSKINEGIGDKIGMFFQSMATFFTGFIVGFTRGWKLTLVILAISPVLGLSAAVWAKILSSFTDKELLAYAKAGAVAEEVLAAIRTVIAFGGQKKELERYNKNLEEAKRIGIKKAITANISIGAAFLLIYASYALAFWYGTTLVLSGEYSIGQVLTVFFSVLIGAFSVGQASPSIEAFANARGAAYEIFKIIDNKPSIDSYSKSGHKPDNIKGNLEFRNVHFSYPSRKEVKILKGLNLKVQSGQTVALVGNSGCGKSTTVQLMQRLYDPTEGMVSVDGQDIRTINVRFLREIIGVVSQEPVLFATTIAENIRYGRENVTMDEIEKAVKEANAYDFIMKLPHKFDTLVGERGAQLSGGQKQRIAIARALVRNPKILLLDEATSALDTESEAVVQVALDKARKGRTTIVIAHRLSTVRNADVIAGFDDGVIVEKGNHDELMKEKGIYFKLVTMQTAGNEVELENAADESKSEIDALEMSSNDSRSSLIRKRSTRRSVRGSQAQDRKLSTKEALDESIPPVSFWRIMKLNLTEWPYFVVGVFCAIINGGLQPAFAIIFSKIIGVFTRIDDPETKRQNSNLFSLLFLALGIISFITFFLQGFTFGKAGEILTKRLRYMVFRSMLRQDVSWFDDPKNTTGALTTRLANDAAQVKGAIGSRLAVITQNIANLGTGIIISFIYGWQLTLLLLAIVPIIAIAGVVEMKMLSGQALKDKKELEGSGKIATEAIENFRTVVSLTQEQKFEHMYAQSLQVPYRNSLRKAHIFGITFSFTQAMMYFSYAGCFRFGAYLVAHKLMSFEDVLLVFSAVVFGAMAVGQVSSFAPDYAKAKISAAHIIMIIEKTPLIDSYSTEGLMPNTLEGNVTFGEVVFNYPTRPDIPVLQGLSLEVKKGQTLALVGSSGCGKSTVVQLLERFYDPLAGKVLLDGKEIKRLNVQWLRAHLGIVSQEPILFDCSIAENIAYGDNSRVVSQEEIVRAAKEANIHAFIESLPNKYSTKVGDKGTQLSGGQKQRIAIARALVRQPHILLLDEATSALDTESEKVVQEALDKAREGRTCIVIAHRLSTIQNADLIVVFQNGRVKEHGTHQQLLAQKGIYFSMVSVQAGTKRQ

CC#CC(=O)N[C@H]1CCCN(c2c(F)cc(C(N)=O)c3[nH]c(C)c(C)c23)C1 [branebrutinib]
EC50: ~4.5 µM
